One may read the IC50 as the point on the concentration scale where inhibition reaches its midpoint.

This is an account of results in patent US9006450B2 (Boehringer Ingelheim International GmbH, priority 2010, dated 2015).

Each structure is given as a SMILES string.

T1 sequence (O00763 129-2458 limits assumed): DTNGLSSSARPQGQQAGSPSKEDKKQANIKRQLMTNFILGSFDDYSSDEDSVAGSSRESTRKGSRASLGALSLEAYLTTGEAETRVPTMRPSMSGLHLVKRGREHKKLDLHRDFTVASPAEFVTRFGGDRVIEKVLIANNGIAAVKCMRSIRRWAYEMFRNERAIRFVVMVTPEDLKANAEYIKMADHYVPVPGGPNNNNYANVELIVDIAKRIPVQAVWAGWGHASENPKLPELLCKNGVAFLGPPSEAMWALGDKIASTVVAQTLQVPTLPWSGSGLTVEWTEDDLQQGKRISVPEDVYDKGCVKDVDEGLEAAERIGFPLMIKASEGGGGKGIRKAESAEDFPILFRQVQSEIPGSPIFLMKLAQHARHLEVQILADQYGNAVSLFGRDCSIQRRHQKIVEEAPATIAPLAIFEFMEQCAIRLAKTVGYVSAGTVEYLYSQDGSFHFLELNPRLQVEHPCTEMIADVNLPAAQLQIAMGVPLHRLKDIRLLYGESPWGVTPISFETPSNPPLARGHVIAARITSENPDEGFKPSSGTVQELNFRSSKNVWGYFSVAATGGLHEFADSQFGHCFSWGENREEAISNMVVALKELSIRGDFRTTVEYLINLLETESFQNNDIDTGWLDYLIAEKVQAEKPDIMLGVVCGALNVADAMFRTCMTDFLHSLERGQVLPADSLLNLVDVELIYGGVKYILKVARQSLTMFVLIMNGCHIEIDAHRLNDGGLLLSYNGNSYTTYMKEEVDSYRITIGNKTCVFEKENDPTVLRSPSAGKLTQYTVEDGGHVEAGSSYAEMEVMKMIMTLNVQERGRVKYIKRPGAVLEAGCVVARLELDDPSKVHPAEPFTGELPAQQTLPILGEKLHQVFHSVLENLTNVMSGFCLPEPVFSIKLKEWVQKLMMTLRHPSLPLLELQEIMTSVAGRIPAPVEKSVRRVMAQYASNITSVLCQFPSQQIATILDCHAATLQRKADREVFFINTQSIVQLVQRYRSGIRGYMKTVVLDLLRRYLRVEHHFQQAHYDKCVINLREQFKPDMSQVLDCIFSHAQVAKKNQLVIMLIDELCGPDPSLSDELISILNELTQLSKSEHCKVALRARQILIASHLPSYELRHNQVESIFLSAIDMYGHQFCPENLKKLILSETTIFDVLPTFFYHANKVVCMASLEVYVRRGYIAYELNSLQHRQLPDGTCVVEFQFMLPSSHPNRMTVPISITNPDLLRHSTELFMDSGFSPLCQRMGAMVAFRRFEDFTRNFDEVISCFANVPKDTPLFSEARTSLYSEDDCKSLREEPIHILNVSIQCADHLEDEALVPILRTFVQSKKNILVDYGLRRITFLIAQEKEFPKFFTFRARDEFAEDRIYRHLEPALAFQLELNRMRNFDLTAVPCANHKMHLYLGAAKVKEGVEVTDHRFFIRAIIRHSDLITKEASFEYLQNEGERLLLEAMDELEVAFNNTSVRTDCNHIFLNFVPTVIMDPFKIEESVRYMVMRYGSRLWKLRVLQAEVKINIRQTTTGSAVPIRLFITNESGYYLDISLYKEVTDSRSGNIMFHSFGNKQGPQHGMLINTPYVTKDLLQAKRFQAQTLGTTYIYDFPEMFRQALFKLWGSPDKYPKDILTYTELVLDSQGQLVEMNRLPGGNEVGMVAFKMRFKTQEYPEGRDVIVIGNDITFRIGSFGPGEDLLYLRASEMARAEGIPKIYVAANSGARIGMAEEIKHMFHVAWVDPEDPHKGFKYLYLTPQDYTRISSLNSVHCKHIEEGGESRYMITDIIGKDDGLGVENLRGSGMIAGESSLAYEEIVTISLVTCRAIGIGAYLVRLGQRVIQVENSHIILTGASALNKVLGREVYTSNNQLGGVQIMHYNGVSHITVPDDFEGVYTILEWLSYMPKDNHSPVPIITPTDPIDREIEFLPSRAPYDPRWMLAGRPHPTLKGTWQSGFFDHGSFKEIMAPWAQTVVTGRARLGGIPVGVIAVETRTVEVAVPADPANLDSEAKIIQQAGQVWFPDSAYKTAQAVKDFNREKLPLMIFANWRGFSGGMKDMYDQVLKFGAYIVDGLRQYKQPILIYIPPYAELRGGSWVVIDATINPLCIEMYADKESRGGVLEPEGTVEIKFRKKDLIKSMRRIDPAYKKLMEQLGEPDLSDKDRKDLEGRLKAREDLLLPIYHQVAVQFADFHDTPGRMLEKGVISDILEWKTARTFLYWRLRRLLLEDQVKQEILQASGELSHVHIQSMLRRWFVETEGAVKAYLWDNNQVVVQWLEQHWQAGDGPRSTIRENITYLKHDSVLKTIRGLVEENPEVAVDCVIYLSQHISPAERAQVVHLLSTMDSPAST

This assay has as its target T1, human ACC2 (Homo sapiens, UniProt O00763).
T1 construct: made in house; host or cells: insect cells (baculoviral expression system)
As to the kind of experiment: ACC2 assay, spectrophotometric 384 well assay (NADH-linked, coupled lactate dehydrogenase/pyruvate kinase). The format is biochemical. As to conditions: ACC2 assay, hACC2 construct lacking 128 N-terminal amino acids, 25° C., 340 nm; read-out: IC50. On the procedure: Spectrophotometric 384 Well Assay
Malonyl CoA formation by acetyl CoA carboxylases is stoichometrically linked to the consumption of ATP. ACC2 activity is measured in a NADH-linked kinetic method measuring ADP generated during the ACC reaction using a coupled lactate dehydrogenase/pyruvate kinase reaction.
For biological testing, a human ACC2 construct which lacks the 128 amino acids at the N-terminus for increased solubility (nt 385-6966 in Genbank entry AJ575592) is cloned. The protein is then expressed in insect cells using a baculoviral expression system. Protein purification is performed by anion exchange.
All compounds are dissolved in dimethyl sulfoxide (DMSO) to a concentration of 10 mM.
Assay reactions are then carried out in 384-well plates, with hACC2 in an appropriate dilution and at final assay concentrations (f.c.) of 100 mM Tris (pH 7.5), 10 mM trisodium citrate, 25 mM KHCO3, 10 mM MgCl2, 0.5 mg/mL BSA, 3.75 mM reduced L-glutathione, 15 U/mL lactate dehydrogenase, 0.5 mM phosphoenolpyruvate, 15 U/mL pyruvate kinase, compounds at different concentrations at final DMSO concentrations of 1%.
The enzymatic reaction is then started by addition of a mixture of NADH, acetyl Coenzyme A (both 200 μM f.c.) and ATP (500 uM f.c.). The decrease of the optical density (slope S) is then determined at 25° C. at a wavelength of 340 nm over 15 minutes in a spectrophotometric reader.
Each assay microtiter plate contains wells with vehicle instead of compound as controls for the non-inhibited enzyme (100% CTL; ‘HIGH’) and wells without acetyl-CoA as controls for non-specific NADH degradation (0% CTL; ‘LOW’).
The slope S is used for calculation of % CTL=(S(compound)−S('LOW'))/(S('HIGH')−S('LOW'))*100. Compounds will give values between 100% CTL (no inhibition) and 0% CTL (complete inhibition).
For IC50 value determination, the sample slope in the presence of the test compound after subtraction of the low controls (S(compound)−S('LOW')) are used.
An IC50 value is derived from the compound slopes at different dosages after subtraction of the low controls (S(compound)−S('LOW')) by non-linear regression curve fitting (equation y=(A+((B−A)/(1+((C/x)^D))))).
For the compound `CC(=O)N[C@@H](C)c1ccc(C2CCN(c3cc(N4CCCCC4)ncn3)CC2)cc1` [Example 11.57], the IC50 came to 0.42 µM. For `CC(=O)N[C@@H](C)c1ccc(C2CCN(c3ncc(-c4ccc(C#N)c(F)c4)cn3)CC2)cc1` [Example 10.1, (S)—N-[1-(4-{1-[5-(4-Cyano-3-fluorophenyl)-pyrimidin-2-yl]-piperidin-4-yl}-phenyl)ethyl]-acetamide], the IC50 worked out at 0.05 µM. For `C[C@H](NC(=O)C1CC1)c1ccc(C2CCN(c3ccc(OCC4CC4)cc3F)CC2)cc1` [Example 1.79] the value was 0.18 µM; for `CC(=O)N[C@@H](C)c1ccc(C2CCN(c3ncc(C(=O)N4CCN(C(C)=O)CC4)cn3)CC2)cc1` [Example 18.53], 15.1 µM. For `CC(=O)N[C@@H](C)c1ccc(C2CCN(c3ccnc(OCC(C)(C)C)c3)CC2)cc1` [Example 19.5], the IC50 is 0.08 µM. For `CSc1ccc(-c2cnc(N3CCC(c4ccc([C@H](C)NC(C)=O)cc4)CC3)nc2)cc1` [Example 10.31] the value was 0.18 µM.

In the case of `COc1ccc(N2CCC(c3ccc([C@H](C)NC(C)=O)cc3)CC2)cc1C#N` [Example 8.45], the IC50 was 7 µM. For `CC(=O)N[C@@H](C)c1ccc(C2CCN(c3ncc4c(C)n[nH]c4n3)CC2)cc1` [Example 4.20] the value was 1.3 µM; for `CC(=O)N[C@@H](C)c1ccc(C2CCN(c3ncc(-c4ccc(N(C)C)nc4)cn3)CC2)cc1` [Example 10.81], 10.4 µM. The value for `CCOc1ccc(N2CCC(c3ccc([C@H](C)NC(=O)NCc4ccncn4)cc3)CC2)cc1` [Example 14.60] was 2.1 µM. The value for `CC(=O)N[C@@H](C)c1ccc(C2CCN(c3ccnc(NCC(C)C)n3)CC2)cc1` [Example 11.66] was 2.2 µM; that for `COCCNc1nccc(N2CCC(c3ccc([C@H](C)NC(C)=O)cc3)CC2)n1` [Example 11.64] was 17.9 µM.

As to `CCC(NC(C)=O)c1ccc(C2CCN(c3ccc(OCC(C)C)cc3)CC2)cc1` (stereo not drawn) [Example 15.21], the IC50 was 1.2 µM. Turning to `CC(=O)N[C@@H](C)c1ccc(C2CCN(c3ccnc(OCc4cccc(F)c4)c3)CC2)cc1` [Example 19.32], the IC50 worked out at 0.27 µM. On to `COc1ccnc(N2CCC(c3ccc([C@H](C)NC(C)=O)cc3)CC2)c1` [Example 4.16], for which the IC50 turned out to be 1.1 µM. The value for `CC(=O)N[C@@H](C)c1ccc(C2CCN(c3ccc(OC4CC4)cc3F)CC2)cc1` [Example 1.189] was 0.06 µM; that for `CC(=O)N[C@@H](C)c1ccc(C2CCN(c3ccc(Cl)c(C)c3)CC2)cc1` [Example 1.156] was 0.6 µM; that for `CC(=O)N[C@@H](C)c1ccc(C2CCN(c3ncc(C(=O)NCCC(=O)N(C)C)cn3)CC2)cc1` [Example 18.66] was 15.8 µM. For `CCOc1ccc(N2CCC(c3ccc([C@H](C)NC(=O)c4ccns4)cc3)CC2)cc1` [Example 6.26] the value was 0.28 µM; for `CC(=O)N[C@@H](C)c1ccc(C2CCN(c3cc(OCC4CC4)ncn3)CC2)cc1` [Example 11.108], 0.11 µM; for `CCOc1ccc(N2CCC(c3ccc([C@H](C)NC(=O)c4cnco4)cc3)CC2)cc1` [Example 6.25], 0.34 µM.

In the case of `CCOc1ccc(N2CCC(c3ccc([C@H](C)NC(=O)CC)cc3)CC2)c(C#N)c1` [Example 1.154], the 50% inhibitory concentration (IC50) was 0.3 µM. The value for `COc1ccc(-c2cnc(N3CCC(c4ccc([C@H](C)NC(C)=O)cc4)CC3)nc2)cc1Cl` [Example 10.57] was 0.24 µM; that for `C[C@H](NC(=O)C1CC1)c1ccc(C2CCN(c3ccc(OCCC4CC4)cc3)CC2)cc1` [Example 1.143] was 0.12 µM. As to `CC(=O)N[C@@H](C)c1ccc(C2CCN(c3ccc(OC4CCC4)c(C#N)c3)CC2)cc1` [Example 8.12], the IC50 was 2.3 µM.

As for `CCOc1ccc(N2CCC(c3ccc([C@H](C)NC(=O)c4cscn4)cc3)CC2)cc1` [Example 6.46], the IC50 stood at 10.4 µM.

`CC(=O)N[C@@H](C)c1ccc(C2CCN(c3ccc(C(C)(F)F)cn3)CC2)cc1` [Example 5.34]: the IC50 is 3.2 µM. Turning to `CCc1cnc(N2CCC(c3ccc([C@H](C)NC(C)=O)cc3)CC2)nc1` [Example 4.42], the IC50 was determined as 0.53 µM. For `CC(=O)N[C@@H](C)c1ccc(C2CCN(c3cc(NCCc4ccccc4)ncn3)CC2)cc1` [Example 11.72] the value was 10.5 µM; for `CC(=O)N[C@@H](C)c1ccc(C2CCN(c3cnccc3C)CC2)cc1` [Example 15.10], 3.2 µM. Regarding `CC(=O)N[C@@H](C)c1ccc(C2CCN(c3ccnc(OCC4CC4)c3)CC2)cc1` [Example 19.10], the concentration for half-maximal inhibition (IC50) turned out to be 0.1 µM.

`CC(=O)N[C@@H](C)c1ccc(C2CCN(c3ccnc(N(C)C4CCCC4)n3)CC2)cc1` [Example 11.96]: the IC50 came out at 0.35 µM. The value for `CC(=O)N[C@@H](C)c1ccc(C2CCN(c3cccc(C(F)(F)F)n3)CC2)cc1` [Example 4.19] was 0.1 µM; that for `CC(=O)N[C@@H](C)c1ccc(C2CCN(c3ccnc(OC4CCC4)n3)CC2)cc1` [Example 11.110] was 0.23 µM; that for `CC(=O)N[C@@H](C)c1ccc(C2CCN(c3cc(NC4CCC4)ncn3)CC2)cc1` [Example 11.46] was 2.8 µM. With `CCc1ccc(-c2cnc(N3CCC(c4ccc([C@H](C)NC(C)=O)cc4)CC3)nc2)cc1` [Example 10.6], the IC50 came to 0.1 µM. Regarding `CCOc1ccc(N2CCC(c3ccc([C@H](C)NC(=O)c4ncc[nH]4)cc3)CC2)cc1` [Example 6.35], the IC50 was 7.1 µM. Take `CC(=O)N[C@@H](C)c1ccc(C2CCN(c3ncc(C(=O)N(C)c4ccc(C)cc4)cn3)CC2)cc1` [Example 18.4]: the IC50 came to 1.8 µM.

On to `Cc1ccc(-c2cnc(N3CCC(c4ccc([C@H](C)NC(=O)N(C)C)cc4)CC3)nc2)cc1` [Example 10.112], for which the 50% inhibitory concentration (IC50) is 0.12 µM. `CC(=O)N[C@@H](C)c1ccc(C2CCN(c3cccc(C(F)(F)F)c3)CC2)cc1` [Example 1.188]: the IC50 is 0.08 µM.

In the case of `CC(=O)N[C@@H](C)c1ccc(C2CCN(c3ncc(C(=O)N4CCOCC4)cn3)CC2)cc1` [Example 18.94], the half-inhibitory concentration (IC50) was 2.2 µM. Consider `CC(=O)N[C@@H](C)c1ccc(C2CCN(c3ncc(-c4ccc(OC(C)C)c(C)c4)cn3)CC2)cc1` [Example 10.126], for which the IC50 amounted to 1.3 µM. The value for `CC(=O)N[C@@H](C)c1ccc(C2CCN(c3ccc(NCC(C)C)cc3)CC2)cc1` [Example 24.3] was 1.1 µM. Regarding `CCOc1ccc(N2CCC(c3ccc([C@H](C)NC(=O)C4CC4)cc3)CC2)c(F)c1` [Example 1.82], the IC50 is 0.16 µM. In the case of `CCC(C)Oc1ccc(N2CCC(c3ccc([C@H](C)NC(C)=O)cc3)CC2)cc1F` (stereo partly drawn) [Example 8.53], the IC50 was 0.3 µM. For `CCOc1ccc(N2CCC(c3ccc([C@H](C)NC(C)=O)cc3)CC2)c(OCC)c1` [Example 1.42] the value was 0.63 µM; for `CC(=O)N[C@@H](C)c1ccc(C2CCN(c3ncc(C(=O)N(C)Cc4cccnc4)cn3)CC2)cc1` [Example 18.31], 9.3 µM.

On to `CC(=O)N[C@@H](C)c1ccc(C2CCN(c3cc4c(cc3F)OCCCO4)CC2)cc1` [Example 1.184], for which the IC50 was found to be 1.2 µM.

Consider `CC(=O)N[C@@H](C)c1ccc(C2CCN(c3ncc(CC(C)C)cn3)CC2)cc1` [Example 10.201], for which the IC50 amounted to 0.34 µM. For `CCOc1ccc(N2CCC(c3ccc([C@H](C)NC(=O)CCOC)cc3)CC2)cc1` [Example 6.30], the IC50 was 1.1 µM. For `CC(=O)NC(C)Cc1ccc(C2CCN(c3ccc(OCC(C)C)cc3)CC2)cc1` (stereo not drawn) [Example 2.7] the value was 1.6 µM; for `COCC(C)Oc1cc(N2CCC(c3ccc([C@H](C)NC(C)=O)cc3)CC2)ccn1` (stereo partly drawn) [Example 19.14], 0.4 µM; for `CC(=O)N[C@@H](C)c1ccc(C2CCN(c3ncc(-c4nc5ccccc5[nH]4)cn3)CC2)cc1` [Example 23.1, (S)—N-[1-(4-{1-[5-(1H-Benzoimidazol-2-yl)-pyrimidin-2-yl]-piperidin-4-yl}-phenyl)-ethyl]-acetamide], 0.29 µM. For `CCCOc1ccc(N2CCC(c3ccc([C@H](C)NC(=O)OC)cc3)CC2)c(C#N)c1` [Example 1.131] the value was 0.19 µM; for `CC(=O)N[C@@H](C)c1ccc(C2CCN(c3ccc(C#N)cn3)CC2)cc1` [Example 4.5], 2.6 µM; for `C[C@H](NC(=O)C1CC1)c1ccc(C2CCN(c3cnc(NCC4CC4)nc3)CC2)cc1` [Example 16.9], 6.7 µM. For `CC(=O)N[C@@H](C)c1ccc(C2CCN(c3ccnc(OCc4ccccn4)c3)CC2)cc1` [Example 19.37] the value was 1.2 µM.
